Assays:
Type in all cases: cell-based
[1] = test system: MDA-MB-231 cells; experiment: Glucose-to-lipid conversion (de novo lipid synthesis); details: similar treatment, 4 h saturating dose
Method: (§1) Cellular glucose-to-lipid conversion was measured as described. Briefly, cells were pretreated with inhibitors for 2 h, incubated for 2 h in medium containing 2 μCi/mL D-[1-14C] glucose (PerkinElmer, NEC043X001MC). Total lipids were extracted twice with 300 μL hexane:isopropanol (3:2; vol:vol). Cell debris was carefully removed by centrifugation at 14,000 rpm for 5 min using a microcentrifuge. Radioactive lipids were dried, redissolved with 100 μL of chloroform and determined by liquid scintillation counting. A duplicate assay plate without radioactive glucose label was used to count the number of cells per treatment. Glucose to total lipid conversion rate is the radioactive counts from the extracted lipid normalized by the number of cells per hour of ^14C-glucose incubation. For acetyl-CoA assay, cells grown in 96-well plates were washed and lysed in 40 μL/well using lysis buffer. Cell lysates were transferred to V-bottom plates, cleared by centrifugation. 30 μL of the cleared cell lysates were subjected to acetyl-CoA measurement using an acetyl-CoA assay kit (Sigma, MAK-039) following manufacturer's assay manual. Duplicate assay plates were used to count the number of cells per treatment for normalization in determining cellular acetyl-CoA levels.

[2] = test system: MDA-MB-453 cells; experiment: as above; details: 4 h, saturating dose (5 μM MTI-31, 1 μM rapamycin)
Method: as §1

[3] = test system: MDA-MB-453 cells; experiment: Total cellular acetyl-CoA level; details: 24 h
Method: as §1

Row | Compound | effect on de novo lipid synthesis [1] | suppression of de novo lipid synthesis (14C-glucose-to-lipid conversion rate) [2] [%] | reduction in acetyl-CoA [3] [%]
1 | COc1ccc(-c2ccc3c(N4CCOC[C@@H]4C)nc(N4CCOC[C@@H]4C)nc3n2)cc1CO [AZD8055] | did not significantly reduce lipid synthesis | 63 | 
2 | CO[C@H]1C[C@@H]2CC[C@@H](C)[C@@](O)(O2)C(=O)C(=O)N2CCCC[C@H]2C(=O)O[C@H]([C@H](C)C[C@@H]2CC[C@@H](O)[C@H](OC)C2)CC(=O)[C@H](C)/C=C(\C)[C@@H](O)[C@@H](OC)C(=O)[C@H](C)C[C@H](C)/C=C/C=C/C=C/1C [rapamycin] | did not significantly reduce lipid synthesis | 32 | 45

Reference: publication PMC5341858, “Molecular regulation of apoptotic machinery and lipid metabolism by mTORC1/mTORC2 dual inhibitors in preclinical models of HER2+/PIK3CAmut breast cancer” (Oncotarget, 2016)
